IC50 data for 23 compounds are collected here from US10131664B2 (Celgene Quanticel Research, Inc., priority 2013, dated 2018).

Structures are written as SMILES. Bounds are passed on as bounds.

One experiment has as its target full-length human LSD1 (Homo sapiens (Human), UniProt O60341). The experiment is described as follows: In vitro enzyme inhibition assay LSD-1 (TR-FRET). The format is biochemical. The note with it: TR-FRET, 0.1 nM LSD1, 50 nM H3K4me1-biotin peptide, 2 μM FAD, pH7.3; read-out: LSD1 IC50. As for the experimental part:
This assay determines the ability of a test compound to inhibit LSD1 demethylase activity.
The enzymatic assay of LSD1 activity is based on Time Resolved-Fluorescence Resonance Energy Transfer (TR-FRET) detection.
The ability of the compounds disclosed herein to inhibit LSD1 activity was quantified and the respective IC50 value was determined. Table 5 provides the IC50 values of various substituted heterocyclic compounds disclosed herein.

For another experiment, the system named is THP-1 (AML) cells. Put plainly: LSD1 CD11b cellular assay (flow cytometry). In kind it is cell-based. The note with it: Homo sapiens, 96 h; CD11b expression in THP-1 (AML) cells, flow cytometry, 4 days incubation; read-out: Cellular IC50. As for the experimental part: To analyze LSD1 inhibitor efficacy in cells, a CD11b flow cytometry assay was performed. LSD1 inhibition induces CD11b expression in THP-1 (AML) cells which can be measured by flow cytometry. […] LSD1 test compounds were serially diluted in DMSO. The dilutions were added to each well accordingly to a final concentration of 0.2% DMSO. The cells were incubated at 37° C. in 5% CO2 for 4 days. 250 μL of each well was transferred to a well in a 96 well round bottom plate. The plate was centrifuged at 1200 rpm at 4 degrees Celsius in a Beckman Coulter Alegra 6KR centrifuge for 5 min. The media was removed leaving the cells at the bottom of the wells. The cells were washed in 100 μL cold HBSS (Hank's Balanced Salt Solution) plus 2% BSA (Bovine Serum Albumin) solution and centrifuged at 1200 rpm at 4° C. for 5 min. The wash was removed. […] The cells were centrifuged and washed two times in 100 μl HBSS plus 2% BSA. After the final spin the cells were resuspended in 100 μL HBSS plus 2% BSA containing 1 μg/mL DAPI (4′,6-diamidino-2-phenylindole). The cells were then analyzed by flow cytometry in a BD FACSAria machine. Cells were analyzed for CD11b expression. The percent of CD11b expressing cells for each inhibitor concentration was used to determine an IC50 curve for each compound analyzed.

As to `N#Cc1ccc(-n2nc(C(=O)N3CCC[C@@H](N)C3)cc2OCc2ccncc2)cc1` [Example 58, 4-{3-[((3R)-3-aminopiperidyl)carbonyl]-5-(4-pyridylmethoxy)pyrazolyl}benzenecarbonitrile], the half-inhibitory concentration (IC50) is below 100 nM on full-length human LSD1 and 1000 to 10000 nM in the experiment on THP-1 (AML) cells.
Take `Cn1cc2cc(-c3cnc(N4CCC(N)CC4)nc3-c3ccc(C#N)c(F)c3)ccc2n1` [Example 59, 4-[2-(4-aminopiperidin-1-yl)-5-(2-methylindazol-5-yl)pyrimidin-4-yl]-2-fluorobenzonitrile]: the IC50 at full-length human LSD1 and with THP-1 (AML) cells was below 100 nM each time.
In the case of `N#Cc1ccc(-c2nc(N3CCC(N)CC3)ncc2-c2cnn(CC(F)(F)F)c2)cc1` [Example 61, 4-[2-(4-aminopiperidin-1-yl)-5-[1-(2,2,2-trifluoroethyl)pyrazol-4-yl]pyrimidin-4-yl]benzonitrile], the IC50 on full-length human LSD1 and in the experiment with THP-1 (AML) cells was below 100 nM in each case.
For the compound `N#Cc1ccc(-c2nc(N3CCC4(CCNC4)CC3)ncc2-c2cnn(CC(F)(F)F)c2)cc1` [Example 62, 4-[2-(2,8-diazaspiro[4.5]decan-8-yl)-5-[1-(2,2,2-trifluoroethyl)pyrazol-4-yl]pyrimidin-4-yl]benzonitrile], the IC50 at full-length human LSD1 and in the experiment with THP-1 (AML) cells was below 100 nM throughout.
On to `N#Cc1ccc(-c2nc(N3CCC4NCCC4C3)ncc2-c2cnn(CC(F)(F)F)c2)cc1` (stereo not shown) [Example 63, 4-[2-{1,2,3,3a,4,6,7,7a-octahydropyrrolo[3,2-c]pyridin-5-yl)-5-[1-(2,2,2-trifluoroethyl)pyrazol-4-yl]pyrimidin-4-yl]benzonitrile], for which the IC50 at full-length human LSD1 is below 100 nM; with THP-1 (AML) cells, 100 to 1000 nM.
For `Cn1ncc2cc(-c3cnc(N4CCC(N)CC4)nc3-c3ccc(C#N)cc3)cnc21` [Example 64, 4-[2-(4-aminopiperidin-1-yl)-5-(1-methylpyrazolo[3,4-b]pyridin-5-yl)pyrimidin-4-yl]benzonitrile] the same measures were below 100 nM and below 100 nM.
Take `Cn1ncc2cc(-c3cnc(N4CCC5CNCC5CC4)nc3-c3ccc(C#N)cc3)cnc21` (stereo not shown) [Example 65, 4-[2-(2,3,3a,4,5,7,8,8a-octahydro-1H-pyrrolo[3,4-d]azepin-6-yl)-5-(1-methylpyrazolo[3,4-b]pyridin-5-yl)pyrimidin-4-yl]benzonitrile]: the IC50 on full-length human LSD1 and in the experiment on THP-1 (AML) cells was below 100 nM throughout.
In the case of `Cn1cnc2cc(-c3cnc(N4CCC(N)CC4)nc3-c3ccc(C#N)cc3)cnc21` [Example 66, 4-[2-(4-aminopiperidin-1-yl)-5-(3-methylimidazo[4,5-b]pyridin-6-yl)pyrimidin-4-yl]benzonitrile], the IC50 at full-length human LSD1 and in the experiment with THP-1 (AML) cells was below 100 nM throughout.
Regarding `Cn1ncc2nc(-c3cnc(N4CCC(N)CC4)nc3-c3ccc(C#N)cc3)ccc21` [Example 67, 4-[2-(4-aminopiperidin-1-yl)-5-(1-methylpyrazolo[4,3-b]pyridin-5-yl)pyrimidin-4-yl]benzonitrile], the IC50 at full-length human LSD1 was below 100 nM; in the experiment on THP-1 (AML) cells, 100 to 1000 nM.
For `Cn1ncc2cc(-c3cnc(N4CCC(N)CC4)nc3-c3ccc(C#N)cc3)ncc21` [Example 69, 4-[2-(4-aminopiperidin-1-yl)-5-(1-methylpyrazolo[3,4-c]pyridin-5-yl)pyrimidin-4-yl]benzonitrile] the same measures were below 100 nM and 100 to 1000 nM.
Regarding `N#Cc1ccc(-c2nc(N3CCC(N)CC3)ncc2C#CC2(O)CCCC2)cc1` [Example 70, 4-{2-(4-aminopiperidin-1-yl)-5-[2-(1-hydroxycyclopentyl)ethynyl]pyrimidin-4-yl]benzonitrile], the IC50 at full-length human LSD1 and in the experiment with THP-1 (AML) cells was below 100 nM in each case.
`N#Cc1ccc(-c2nc(N3CCC(N)CC3)ncc2-c2cnn(C3CCOC3)c2)cc1` (stereo not shown) [Example 71, 4-[2-(4-aminopiperidin-1-yl)-5-[1-(oxolan-3-yl)pyrazol-4-yl]pyrimidin-4-yl]benzonitrile]: the IC50 at full-length human LSD1 was below 100 nM; in the experiment on THP-1 (AML) cells it was 100 to 1000 nM.
For `Cn1nnc2cc(-c3cnc(N4CCC(N)CC4)nc3-c3ccc(C#N)cc3)ccc21` [Example 72, 4-[2-(4-aminopiperidin-1-yl)-5-(1-methylbenzotriazol-5-yl)pyrimidin-4-yl]benzonitrile] the same measures were below 100 nM and below 100 nM.
The like results for `Cn1cc2cc(-c3cnc(N4CCC(N)CC4)nc3-c3ccc(C#N)cc3)ncc2n1` [Example 73, 4-[2-(4-aminopiperidin-1-yl)-5-(2-methylpyrazolo[3,4-c]pyridin-5-yl)pyrimidin-4-yl]benzonitrile] were, in that order, below 100 nM and 100 to 1000 nM.
On to `Cn1cc2ncc(-c3cnc(N4CCC(N)CC4)nc3-c3ccc(C#N)cc3)cc2n1` [Example 76, 4-[2-(4-aminopiperidin-1-yl)-5-(2-methylpyrazolo[4,3-b]pyridin-6-yl)pyrimidin-4-yl]benzonitrile], for which the IC50 on full-length human LSD1 is below 100 nM; with THP-1 (AML) cells, 100 to 1000 nM.
For `Cn1ccc2nc(-c3cnc(N4CCC(N)CC4)nc3-c3ccc(C#N)cc3)ccc21` [Example 77, 4-[2-(4-aminopiperidin-1-yl)-5-(1-methylpyrrolo[3,2-b]pyridin-5-yl)pyrimidin-4-yl]benzonitrile] the same measures were below 100 nM and 100 to 1000 nM.
Consider `N#Cc1ccc(-c2nc(N3CCC(N)CC3)ncc2-c2cnn(CC3CCOC3)c2)cc1` (stereo not shown) [Example 78, 4-[2-(4-aminopiperidin-1-yl)-5-[1-(oxolan-3-ylmethyl)pyrazol-4-yl]pyrimidin-4-yl]benzonitrile], for which the IC50 on full-length human LSD1 was below 100 nM; in the experiment on THP-1 (AML) cells, 100 to 1000 nM.
As to `N#Cc1ccc(-c2nc(N3CCC(N)CC3)ncc2-c2ccc3c(c2)ncn3C(F)F)cc1` [Example 79, 4-[2-(4-aminopiperidin-1-yl)-5-[1-(difluoromethyl)benzimidazol-5-yl]pyrimidin-4-yl]benzonitrile], the concentration for half-maximal inhibition (IC50) at full-length human LSD1 and in the experiment with THP-1 (AML) cells was below 100 nM in each case.
As to `N#Cc1ccc(-c2nc(N3CCC(N)CC3)ncc2-c2cnn(CC(F)(F)F)c2)cc1F` [Example 80, 4-[2-(4-aminopiperidin-1-yl)-5-[1-(2,2,2-trifluoroethyl)pyrazol-4-yl]pyrimidin-4-yl]-2-fluorobenzonitrile], the IC50 on full-length human LSD1 and in the experiment with THP-1 (AML) cells was below 100 nM in each case.
Regarding `COc1ccc(-c2cnc(N3CCC(N)CC3)nc2-c2ccc(C#N)cc2)cc1` [Example 83, 4-[2-(4-aminopiperidin-1-yl)-5-(4-methoxyphenyl)pyrimidin-4-yl]benzonitrile], the IC50 on full-length human LSD1 and in the experiment with THP-1 (AML) cells was below 100 nM each time.
Turning to `COc1ccc(-c2cnc(N3CCC(N)CC3)nc2-c2ccc(C#N)cc2)cc1F` [Example 84, 4-[2-(4-aminopiperidin-1-yl)-5-(3-fluoro-4-methoxyphenyl)pyrimidin-4-yl]benzonitrile], the IC50 on full-length human LSD1 and in the experiment on THP-1 (AML) cells was below 100 nM throughout.
As to `Cn1cc2cc(-c3cnc(N4CCC(N)CC4)nc3-c3ccc(C#N)cc3)cnc2n1` [Example 85, 4-[2-(4-aminopiperidin-1-yl)-5-(2-methylpyrazolo[3,4-b]pyridin-5-yl)pyrimidin-4-yl]benzonitrile], the values for the IC50 at full-length human LSD1 and with THP-1 (AML) cells were below 100 nM and 100 to 1000 nM, respectively.
The like results for `Cn1cnc2cc(-c3cnc(N4CCC(N)CC4)nc3-c3ccc(C#N)c(F)c3)ccc21` [Example 87, 4-[2-(4-aminopiperidin-1-yl)-5-(1-methylbenzimidazol-5-yl)pyrimidin-4-yl]-2-fluorobenzonitrile] were, in that order, below 100 nM and below 100 nM.
